The source made the active and inactive calls. The rule behind the calls is not given here.
How the values were obtained:
[1] = target: T1, Metabotropic glutamate receptor 5 (Homo sapiens, UniProt P41594); test: Displacement of [3H]MPEP from mGlu5 receptor
[2] = target: T1, Metabotropic glutamate receptor 5; test: Antagonist activity at mGluR5 by FLIPR; assay type: functional
[3] = Metabolic stability in human liver microsomes; assay type: ADME, Microsome
[4] = Metabolic stability in rat liver microsomes; assay type: ADME, Microsome
Rattus norvegicus [5] = test: Anxiolytic-like activity in rat assessed as increase in drinking time at 30 mg/kg, po by Vogel conflict test; assay type: functional, organism-based; set-up: dose 30 mg/kg
Rattus norvegicus [6] = organism: Rattus norvegicus; test: Anxiolytic-like activity in rat assessed as reversal of foot shock-induced suppression of lever pressing by conditioned emotional response test; assay type: functional, organism-based
Rattus norvegicus [7] = test: Anxiolytic-like activity in rat assessed as behavioral disruption at 3 to 30 mg/kg, po by conditioned emotional response test; assay type: functional, organism-based
Rattus norvegicus [8] = organism: Rattus norvegicus; test: Anxiolytic-like activity in rat assessed as reversal of foot shock-induced suppression of lever pressing by conflict test; assay type: functional, organism-based
Rattus norvegicus [9] = test: Anxiolytic-like activity in rat assessed as behavioral disruption at 3 to 30 mg/kg, po by conflict test; assay type: functional, organism-based

T1 sequence (P41594 whole entry): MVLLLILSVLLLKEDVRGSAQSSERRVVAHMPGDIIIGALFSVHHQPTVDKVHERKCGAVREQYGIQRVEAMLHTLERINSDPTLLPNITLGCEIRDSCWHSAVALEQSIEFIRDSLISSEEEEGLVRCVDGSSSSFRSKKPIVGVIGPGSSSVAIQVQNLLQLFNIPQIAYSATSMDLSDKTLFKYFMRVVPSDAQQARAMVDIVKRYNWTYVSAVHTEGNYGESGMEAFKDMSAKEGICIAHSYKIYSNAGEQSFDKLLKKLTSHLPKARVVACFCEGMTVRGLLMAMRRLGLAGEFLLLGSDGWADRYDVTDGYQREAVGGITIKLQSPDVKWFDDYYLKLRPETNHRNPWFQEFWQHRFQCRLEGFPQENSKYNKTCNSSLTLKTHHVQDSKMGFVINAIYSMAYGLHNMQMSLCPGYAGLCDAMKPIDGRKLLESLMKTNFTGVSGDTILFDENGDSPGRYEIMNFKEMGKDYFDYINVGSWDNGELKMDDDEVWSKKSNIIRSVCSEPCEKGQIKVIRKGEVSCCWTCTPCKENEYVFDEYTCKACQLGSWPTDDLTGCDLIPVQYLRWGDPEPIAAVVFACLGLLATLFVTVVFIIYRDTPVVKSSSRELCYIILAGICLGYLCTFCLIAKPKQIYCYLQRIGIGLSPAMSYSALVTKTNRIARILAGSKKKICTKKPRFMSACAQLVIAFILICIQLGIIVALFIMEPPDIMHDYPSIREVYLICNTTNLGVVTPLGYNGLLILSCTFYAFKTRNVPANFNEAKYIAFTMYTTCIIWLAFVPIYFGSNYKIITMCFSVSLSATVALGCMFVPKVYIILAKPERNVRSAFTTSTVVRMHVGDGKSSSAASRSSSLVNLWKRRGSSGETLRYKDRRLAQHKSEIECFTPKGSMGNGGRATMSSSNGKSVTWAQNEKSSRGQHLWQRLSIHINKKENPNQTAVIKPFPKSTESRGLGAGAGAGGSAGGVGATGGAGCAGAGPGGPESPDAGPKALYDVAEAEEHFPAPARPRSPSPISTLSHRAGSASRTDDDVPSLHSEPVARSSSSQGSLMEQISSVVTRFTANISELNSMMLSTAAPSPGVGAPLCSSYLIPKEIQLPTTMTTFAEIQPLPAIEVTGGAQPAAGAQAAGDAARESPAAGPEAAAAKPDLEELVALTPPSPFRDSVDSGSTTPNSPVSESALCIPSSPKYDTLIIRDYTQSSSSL

| SMILES | IC50 [1] [nM] | IC50 [2] [nM] | microsomal CLint [3] [µL/min/mg] | microsomal CLint [4] [µL/min/mg] | further results |
| --- | --- | --- | --- | --- | --- |
| CN1CC(=O)N/C1=N\C(=O)Nc1ccsc1 | 700 | 4020 | – | – | – |
| CN1CC(=O)N/C1=N\C(=O)Nc1cccnc1 | > 5000 | > 5000 | 20 | 5 | – |
| CN1CC(=O)N/C1=N\C(=O)Nc1ccccc1 | 1360 | 3300 | – | – | – |
| CN1CC(=O)N/C1=N\C(=O)Nc1ccccc1Cl | 2520 | 6800 | – | – | – |
| CN1CC(=O)N/C1=N\C(=O)Nc1ccccn1 | 587 | 1100 | 47 | 22 | – |
| CN1CC(=O)N/C1=N\C(=O)Nc1ccncc1 | 1120 | > 5000 | 11 | 9 | – |
| CN1CC(=O)N/C1=N\C(=O)Nc1ccc(Cl)cc1 | > 5000 | > 5000 | – | – | – |
| Cc1cccc(C#Cc2ccc(Cl)cc2)n1 | 286 | 1020 | – | – | – |

Stronger by IC50 [1], values ahead:

| IC50 [1] [nM] | IC50 [2] [nM] | microsomal CLint [3] [µL/min/mg] | microsomal CLint [4] [µL/min/mg] | SMILES | further results |
| --- | --- | --- | --- | --- | --- |
| 10 | 66 | – | – | Cc1cccc(C#Cc2cccnc2)n1 | – |
| 39 | 400 | – | – | Cc1cccc(C#Cc2ccccn2)n1 | – |
| 5 | 15 | – | – | Cc1cccc(C#Cc2ccccc2Cl)n1 | – |
| 78 | 434 | 55 | 27 | CN1CC(=O)N/C1=N\C(=O)Nc1csc(Cl)c1 | Activity (Rattus norvegicus [5]): Active; Activity (Rattus norvegicus [6]): Dose-dependent effect; Activity (Rattus norvegicus [7]): inactive; Activity (Rattus norvegicus [8]): Dose-dependent effect; Activity (Rattus norvegicus [9]): inactive |
| 3 | 7 | – | – | Cc1cccc(C#Cc2cccc(Cl)c2)n1 | – |
| 26 | 213 | – | – | Cc1cccc(C#Cc2ccncc2)n1 | – |
| 61 | 38 | 100 | 44 | CN1CC(=O)N=C1NC(=O)Nc1cccc(Cl)c1 [FENOBAM ANHYDROUS] | – |
